According to patent publication EP0563386A1, “ANTICANCER COMPOSITION AND COMPOUND” (NIPPON SHINYAKU COMPANY, LIMITED, priority 1990, dated 1992):
Structures can show the parent of a compound that is named as a salt.

Tests used:
cancer patients [1] = test: Clinical use with radiotherapy and chemotherapy, 39 case reports (Test Example 8); type: in vivo
Experimental: Predetermined radiotherapy [each proven focus was irradiated with cobalt 60 gamma rays, […], in simply divided doses at intervals of several days and oily bleomycin was administered intramuscularly in a dose range of 0.5-3 mg/day (a total of not more than 50 mg) 30 minutes before and 30 minutes after each irradiation] was given to the following cancer patients and concomitantly the following prescription was given orally.
Following Test Example 7, the clinical effect was investigated. Radiotherapy, chemotherapy and administration of irsogladine maleate were performed in the same manner as in Test Example 7.

cancer patients [2] = test: Clinical use with radiotherapy and chemotherapy, 45 cancer cases (Test Example 7); type: in vivo
Experimental: Predetermined radiotherapy [each proven focus was irradiated with cobalt 60 gamma rays, about 28 Gy, in simply divided doses at intervals of several days and oily bleomycin was administered intramuscularly in a dose range of 0.5-3 mg/day (a total of not more than 50 mg) 30 minutes before and 30 minutes after each irradiation] was given to the following cancer patients and concomitantly the following prescription was given orally.

Meth A fibrosarcoma = Meth A fibrosarcoma tumor volume in mice (Test Example 2); type: in vivo, BALB/c mice
Experimental: • (1) The homologus tumor Meth A fibrosarcoma subcultured (ascites type) in BALB/c mice, 5 x 10^5 cells, was transplanted subcutaneously at the flank of 6-week-old male BALB/c mice. Mice having a tumor volume of 70-100 mm³ were selected and divided into groups of 9. Oral single daily administration of the test compound was started and the body weight and tumor volume were serially determined. The volume was determined using the same calculation formula as shown in Test Example 1. The compound of the invention irsogladine maleate, 10 mg/kg, suspended in 0.5% methylcellulose maleate and 5-fluorouracil, 15 mg/kg, dissolved in 0.5% methylcellulose solution were respectively administered orally. The control group received 0.5% methylcellulose solution orally. […] The effect of the com pound of this invention as an anticancer agent is, thus, clear. • (2) As in the above test, mice having a tumor volume of 160-180 mm³ were selected and subjected to the same test as above. The compound of this invention irsogladine maleate, 10 mg/kg, 5-flurorouracil, 30 mg/kg, or as a combination therapy, irsogladine maleate, 10 mg/kg, plus 5-fluorouracil, 30 mg/kg, were administered orally. The control group received the same control material as in the above test orally. […] The anticancer adjuvant activity of the compound of this invention to 5-FU is clear.
The open circle stands for control, the open triangle for 5-FU and the closed circle for the compound of the invention. The tumor volume (mm³) is plotted on the vertical axis and the number of days after drug administration on the horizontal axis.
The open circle stands for control, the open triangle for F-5U, the closed circle for the compound of the invention, the open square for the combination therapy. The tumor volume (mm³) is plotted on the vertical axis and the number of days after drug administration on the horizontal axis.

[3] = tested on: WiDr (human colon cancer); test: Tumor growth inhibition, WiDr implant in nude mice (Test Example 1); type: in vivo, BALB/c nude mice; conditions: implant volume on day 18 after transplantation divided by volume at transplantation; irsogladine maleate 10 mg/kg orally once daily from day 14; cyclophosphamide 150 mg/kg intraperitoneally once on day 14; groups of 10
Experimental: WiDr (human colon cancer) cells subcultured in BALB/c nude mice were dissected to prepare cubes, about 2 mm³ each. These cubes were transplanted subaxillarily into separate BALB/c nude mice using a transplantation needle. The animals were divided into groups of 10 individuals on day 10 after transplantation and the body weight and the diameter of the implant were serially determined. As the compound of this invention, irsogladine maleate, 10 mg/kg, was suspended in 0.5% methylcellulose solution and administered orally once daily beginning day 14 after transplantation. Cyclophosphamide, 150 mg/kg, was dissolved in PBS and administered intraperitoneally once on day 14 after transplantation. The control group received 0.5% methylcellulose solution orally once daily beginning day 14 after transplantation.
The volume of the implant on day 18 after transplantation was divided by the volume at trans plantation. […]
The effect of the compound of this invention as an anticancer agent is clear.

For `Nc1nc(N)nc(-c2cc(Cl)ccc2Cl)n1` [irsogladine maleate], which clinical outcome (cancer patients [1]; (1) case (1): person, SCC of the pharynx metastasized to the right neck, about 15 days, with irradiation and chemotherapy) is on record?
Its clinical outcome is “complete resoltuion of the tumor”.

What about the clinical outcome (cancer patients [1]; (1) case (2): person, SCC of the pharynx metastasized to the left neck, with radiotherapy and chemotherapy) of the same compound?
Its clinical outcome is “complete resolution of the tumor”.

What about the clinical outcome (cancer patients [1]; (1) case (3): person, pharyngeal cancer with lymph node and lung metastasis, with radiotherapy and chemotherapy) of the same compound?
The clinical outcome was “complete resolution of the tumor”.

What about the clinical outcome (cancer patients [1]; (1) case (4): person, SCC of the anterior association of the vocal cord, pharyngeal cancer, with radiotherapy and chemotherapy) of the same compound?
The clinical outcome was “complete resolution of the tumor”.

What about the clinical outcome (cancer patients [1]; (1) case (5): person, SCC of the pharynx, metastasis to the mediastinum, with radiotherapy and chemotherapy) of the same compound?
Its clinical outcome is “complete resolution of the tumor”.

And the clinical outcome (cancer patients [1]; (1) case (6): person, tumor in the anterior association of the vocal cord, with radiotherapy and chemotherapy)?
The clinical outcome was “partial resolution of the tumor”.

What about the clinical outcome (cancer patients [1]; (1) case (7): person, SCC of the pharynx, with radiotherapy and chemotherapy) of the same compound?
The clinical outcome was “complete resolution of the tumor”.

And the clinical outcome (cancer patients [1]; (2) case (1): person, TCC of the ureter, after resection, with radiotherapy and chemotherapy)?
The clinical outcome was “complete resolution of the tumor”.

What about the clinical outcome (cancer patients [1]; (2) case (2): person, TCC of the ureter, relapsed, with radiotherapy and chemotherapy) of the same compound?
The clinical outcome was “partial resolution of the tumor”.

What about the clinical outcome (cancer patients [1]; (3) case (1): person, SCC of the tongue, metastasis to the left neck, with radiotherapy and chemotherapy) of the same compound?
Its clinical outcome is “complete resolution of the tumor”.

What about the clinical outcome (cancer patients [1]; (3) case (2): person, SCC of the tongue with metastasis to the left neck, with radiotherapy and chemotherapy) of the same compound?
Its clinical outcome is “complete resolution of the tumor”.

What about the clinical outcome (cancer patients [1]; (4) case (1): person, recurrent breast cancer with bone metastasis, with radiotherapy and chemotherapy) of the same compound?
The clinical outcome was “died of injury of cervical vertebra and paraplegia”.

What about the clinical outcome (cancer patients [1]; (4) case (2): person, recurrent breast cancer, invasive duct carcinoma, with radiotherapy and chemotherapy) of the same compound?
Its clinical outcome is “complete resolution of the tumor”.

And the clinical outcome (cancer patients [1]; (5) case (1): person, breast cancer (first on-set), 3 months, with radiotherapy, chemotherapy and resection)?
Its clinical outcome is “complete resolution of the tumor”.

And the clinical outcome (cancer patients [1]; (6) case (1): person, SCC of the epipharynx, metastases to lung and lumbar vertebra, with radiotherapy and chemotherapy)?
The clinical outcome was “partial resolution of the tumor”.

And the clinical outcome (cancer patients [1]; (6) case (2): person, SCC of epipharynx with metastasis to the right neck, with radiotherapy and chemotherapy)?
The clinical outcome was “complete resolution of the tumor”.

And the clinical outcome (cancer patients [1]; (6) case (3): person, pulmonary metastasis from epipharynx SCC, with radiotherapy and chemotherapy, patient later died after mixed infection)?
Its clinical outcome is “tumor disappeared”.

And the clinical outcome (cancer patients [1]; (6) case (4): person, maxillary/epipharyngeal cancer group, with irradiation and chemotherapy)?
Its clinical outcome is “partially resolved”.

And the clinical outcome (cancer patients [1]; (7) case (1): person, tumor of the right anterior ear, SCC of parotid gland, with radiation therapy and chemotherapeutic agents)?
Its clinical outcome is “tumor disappeared”.

And the clinical outcome (cancer patients [1]; (7) case (2): person, SCC of the right external auditory canal, with radiotherapy, chemotherapy and resection)?
The clinical outcome was “complete resolution”.

And the clinical outcome (cancer patients [1]; (7) case (3): person, SCC relapsed in the left anterior ear, with radiotherapy, chemotherapy and resection)?
The clinical outcome was “completely disappeared”.

What about the clinical outcome (cancer patients [1]; (8) case (1): person, metastatic lung cancer, primary rectal cancer, dotted shadow of right lower lung field, with radiotherapy and chemotherapy) of the same compound?
Its clinical outcome is “reduced to 1/4”.

What about the clinical outcome (cancer patients [1]; (8) case (2): person, metastatic lung cancer, primary hypopharynx cancer, with radiotherapy and chemotherapy) of the same compound?
The clinical outcome was “disappeared completely”.

And the clinical outcome (cancer patients [1]; (8) case (3): person, metastatic lung cancer, primary esophageal cancer (upper), with radiotherapy and chemotherapy)?
Its clinical outcome is “disappeared completely”.

What about the clinical outcome (cancer patients [1]; (8) case (4): person, primary pharyngeal cancer, metastases to hili of the lung, with radiotherapy and chemotherapy) of the same compound?
Its clinical outcome is “the enlargement of the pharynx and of the hili of the lung disappeared”.

And the clinical outcome (cancer patients [1]; (8) case (5): person, primary pancreatic carcinoma, pulmonary metastasis, with radiotherapy and chemotherapy)?
Its clinical outcome is “disappeared completely”.

What about the clinical outcome (cancer patients [1]; (8) case (6): person, primary colon cancer, pulmonary metastasis, with radiotherapy and chemotherapy) of the same compound?
Its clinical outcome is “Partial resolution”.

What about the clinical outcome (cancer patients [1]; (9) case (1): person, recurrent ovarian cancer, with chemotherapeutic agents) of the same compound?
The clinical outcome was “remained unchanged”.

What about the clinical outcome (cancer patients [1]; (9) case (2): person, ovarian cancer, metastases to Virchow's nodes, abdominal tumor, with radiotherapy and chemotherapy) of the same compound?
Its clinical outcome is “disappeared completely”.

What about the clinical outcome (cancer patients [1]; (9) case (3): person, uterine cancer, SCC, with radiation therapy (40 Gy) and chemotherapy) of the same compound?
The clinical outcome was “partial resolution of the tumor”.

And the clinical outcome (cancer patients [1]; (9) case (4): person, stomach cancer with ascites, after resection, with irradiation and chemotherapy)?
The clinical outcome was “died of DIC”.

And the clinical outcome (cancer patients [1]; (10) case (1): person, colorectal cancer, tubular ADC, with radiotherapy and chemotherapy)?
The clinical outcome was “died of mixed infection”.

What about the clinical outcome (cancer patients [1]; (10) case (2): person, colorectal cancer with pulmonary and nodal metastasis, ascites, with radiotherapy and chemotherapy) of the same compound?
Its clinical outcome is “ascites were reduced and the patient became ambulant”.

And the clinical outcome (cancer patients [1]; (10) case (3): person, tumor of the right hypogastrium, CK and ADC, with radiotherapy and chemotherapy)?
Its clinical outcome is “ascites were removed”.

What about the clinical outcome (cancer patients [1]; (11) case (1): person, liposarcoma of the left chest wall with metastasis to the right mediastinum, with radiotherapy and chemotherapy) of the same compound?
Its clinical outcome is “Partial resolution”.

What about the clinical outcome (cancer patients [1]; (11) case (2): person, pelvic chondrosarcoma, treatment from November 1990 with radiotherapy and chemotherapy) of the same compound?
Its clinical outcome is “living as of February 1991”.

What about the clinical outcome (cancer patients [1]; (11) case (3): person, chondrosarcoma of the right leg, pulmonary metastasis, with radiotherapy and chemotherapy) of the same compound?
The clinical outcome was “Pain was relieved”.

And the clinical outcome (cancer patients [1]; (11) case (4): person, malignant lymphoma, tumor 4 x 4 cm at start, with radiotherapy and chemotherapy)?
The clinical outcome was “Complete resolution”.

What about the clinical outcome (cancer patients [1]; (11) case (5): person, malignant multiple schwannoma vertebrae, with radiotherapy and chemotherapy) of the same compound?
Its clinical outcome is “paralysis of limbs was found”.

What about the patients who died (cancer patients [1]; of the 39 patients of Test Example 8) of the same compound?
The patients who died was “four”.

And the “complete or partial resolution, overall” value (cancer patients [1]; summary of the 39 patients of Test Example 8)?
The value was “no patients in whom complete or partial resolution was not obtained”.

What about the “disappearance of tumor by palpation or diagnostic imaging” value (cancer patients [2]; 11 cases of breast cancer, 4 weeks after initiation, 2 mg/day x 2 orally with radiotherapy and chemotherapy) of the same compound?
The value was “disappearance of tumor was confirmed”.

And the “disappearance of tumor by palpation or diagnostic imaging” value (cancer patients [2]; 13 cases of pharyngeal cancer and cancer of upper esophagus, 4 weeks after initiation, 2 mg/day x 2 orally with radiotherapy and chemotherapy)?
Its value is “disappearance of tumor was confirmed”.

What about the “cases with disappearance of tumor confirmed by palpation or diagnostic imaging” value (cancer patients [2]; all 45 cases of Test Example 7) of the same compound?
Its value is 45 cases.

What about the “disappearance of tumor by palpation or diagnostic imaging” value (cancer patients [2]; five cases of rectal cancer, 4 weeks after initiation, 2 mg/day x 2 orally with radiotherapy and chemotherapy) of the same compound?
Its value is “disappearance of tumor was confirmed”.

What about the “disappearance of tumor by palpation or diagnostic imaging” value (cancer patients [2]; nine cases of maxillary cancer and epipharyngeal cancer, 4 weeks after initiation, 2 mg/day x 2 orally with radiotherapy, bleomycin, carmofur, doxifluridine, tegafur) of the same compound?
Its value is “disappearance of tumor was confirmed”.

And the “cases with disappearance of tumor histologically verified by biopsy” value (cancer patients [2]; of the 45 cases of Test Example 7)?
The value was 14 cases.

What about the “disappearance of tumor by diagnostic imaging” value (cancer patients [2]; one case of stomach cancer, 4 weeks after initiation, 2 mg/day x 2 orally with radiotherapy and chemotherapy) of the same compound?
The value was “disappearance of tumor was confirmed”.

What about the “disappearance of tumor by palpation or diagnostic imaging” value (cancer patients [2]; six cases of bladder cancer, renal cancer, ovarian cancer, etc., 4 weeks after initiation, 2 mg/day x 2 orally with radiotherapy and chemotherapy) of the same compound?
The value was “disappearance of tumor was confirmed”.

What about the “tumor volume (effect versus 5-FU)” value (Meth A fibrosarcoma; Test (1): start tumor volume 70-100 mm³, irsogladine maleate 10 mg/kg orally once daily, comparator 5-fluorouracil 15 mg/kg orally, Fig. 1) of the same compound?
Its value is “effect comparable to that of 5-FU, 15 mg/kg”.

And the “tumor-inhibitory effect, single drug” value (Meth A fibrosarcoma; Test (2): start tumor volume 160-180 mm³, irsogladine maleate 10 mg/kg or 5-fluorouracil 30 mg/kg orally, Fig. 2)?
Its value is “tumor-inhibitory effect”.

And the “tumor-inhibitory effect, combination therapy” value (Meth A fibrosarcoma; Test (2): start tumor volume 160-180 mm³, irsogladine maleate 10 mg/kg plus 5-fluorouracil 30 mg/kg orally, Fig. 2)?
Its value is “more remarkable”.

What about the Tumor volume ratio [3] of the same compound?
Its Tumor volume ratio is 1.52 ± 0.08.
